Measured values: patent EP1433789A1, “Pyrrolopyrazines and their use as selective apoptosis inducers” (Aponetics AG, priority 2002, dated 2004)

Key:
[1] = tested on: HeLa; experiment: Hoechst 33342 nuclear staining (Table 3); assay type: cell-based, human; design: key: 0 relating to no activity; 1 relating to weak activity comprising less than 50% of the cells; score 2 relating to strong activity comprising more than 50% of the cells
Procedure: (§1) This assay is performed in 96 well tissue culture plates. Appropriate number of cells (adherent cells: 3 - 5*10^3, suspension cells: 8 - 10*10^3) are being seeded out in 80 µl complete medium. Adherent cells are incubated for 24 h for proper spreading out before addition of test compounds while suspension cells are immediately treated with test compounds after seeding out. The test compounds are added in 20 µl complete medium containing max 5% DMSO. The final compound concentrations in the assays are 10 µM, 3 µM,1 µM and 0.3 µM, respectively. After 24 h or 48 h incubation at culture conditions, 10 µl medium containing Hoechst 33342 dye (Sigma B-2261) at 2-5 µg/ml are added to each well. The assay plates are then further incubated for 30 minutes and subsequently analyzed with a standard inverted fluorescence microscope. The readout allows the determination of the fraction of apoptotic nuclei as well as other morphological criteria specific for apoptosis as a function of the treatment. The following scores are used: 0 relating to no activity, 1 relating to weak activity comprising less than 50% of the cells and score 2 relating to strong activity comprising more than 50% of the cells.

[2] = tested on: Jurkat; experiment: Hoechst 33342 nuclear staining (Table 3); assay type: cell-based, human; design: key: 0 relating to no activity; 1 relating to weak activity comprising less than 50% of the cells; score 2 relating to strong activity comprising more than 50% of the cells
Procedure: as §1

[3] = tested on: K562; experiment: Hoechst 33342 nuclear staining (Table 3); assay type: cell-based, human; design: key: 0 relating to no activity; 1 relating to weak activity comprising less than 50% of the cells; score 2 relating to strong activity comprising more than 50% of the cells
Procedure: as §1

[4] = tested on: KB; experiment: Hoechst 33342 nuclear staining (Table 3); assay type: cell-based, human; design: key: 0 relating to no activity; 1 relating to weak activity comprising less than 50% of the cells; score 2 relating to strong activity comprising more than 50% of the cells
Procedure: as §1

[5] = tested on: A20; experiment: MTS proliferation assay; assay type: cell-based; details: Mus musculus, A20, 72 h incubation
Procedure: (§2) The assay is performed in 96 well tissue culture plates. The cells (range : 1.5*10^3-10^4) are seeded out in 80 µl complete medium 24 h prior to compound treatment. The test compounds are added in 20 µl complete medium containing max 5% DMSO. The final compound concentrations in the assays are 10 µM, 3 µM,1 µM and 0.3 µM, respectively. The assay plates are incubated for 72 h at culture conditions. The MTS reagent is prepared according to the manufacturer's protocol (Promega G1111 ). 20 µl MTS reagent are added to each well, the assay plates are quickly spun and incubated for another 3 h at culture conditions. Subsequently, the plates are shortly shaked and absorption measured with a microplate-reader at 492 nm.

[6] = tested on: HeLa; experiment: MTS proliferation assay; assay type: cell-based; details: Homo sapiens, 72 h incubation
Procedure: as §2

[7] = tested on: K562; experiment: MTS proliferation assay; assay type: cell-based; details: Homo sapiens, K562, 72 h incubation
Procedure: as §2

[8] = tested on: HeLa; experiment: AnnexinV/7-AAD staining; assay type: cell-based, human; details: 10 µM, 24 h treatment
Procedure: (§3) Adherent cells (1 - 2*10^5) are 24 h prior to compound treatment seeded into 24 well tissue culture plates. Suspension cells are pipetted into P-tubes immediately before treatment. Test compounds are added leading to a final concentrations of 10 µM. After 24 h treatment cells are harvested (in case of adherent cells by trypsinization) and transferred to FACS tubes (BD Biosciences). After centrifugation and removal of the supernatant, 100 µl complete medium containing AnnexinV-GST (10 µg) is added, mixed and incubated at 4°C for 30 minutes. Subsequently, the cells are washed once with medium and incubated with 100 µl anti-GST Alexa 488 (Molecular Probes A-11131) in medium diluted 1:500 for 30 minutes at 4°C. Then, cells are washed once and stained with 1 µg/ml 7-aminoactinomycin D (7-AAD) (Molecular Probes A-1310) in 250 µl medium and analyzed on the FACSCalibur™. AnnexinV is measured in FL1 whereas 7-AAD is measured in FL3. In Table 5 the percentage of positively stained cells after treatment with the respective compounds are indicated. The following scores are used: Score 0 relates to less than 10%, score 1 relates to more than 10% but less than 50% and score 2 relates to more than 50% positivity.

[9] = tested on: Jurkat; experiment: AnnexinV/7-AAD staining; assay type: cell-based, human; details: 10 µM, 24 h treatment
Procedure: as §3

[10] = tested on: Ramos; experiment: AnnexinV/7-AAD staining; assay type: cell-based, human; details: 10 µM, 24 h treatment
Procedure: as §3

[11] = tested on: A20; experiment: AnnexinV/7-AAD staining; assay type: cell-based, mouse; details: A20, 10 µM, 24 h treatment
Procedure: as §3

[12] = tested on: HeLa; experiment: PI staining for cell cycle distribution; assay type: cell-based, human; design: key: 0 indicates no occurrence at all; 1 for weak; 2 for strong occurrence; details: HeLa 10 µM, 24 h
Procedure: (§4) 1 - 2*10^5 cells are seeded into 24 well tissue culture plates and incubated for 24 h prior to compound addition. Compounds are added for 24 h in a final concentration of 3 µM or 10 µM. Adherent cells are harvested by trypsinization. The cell suspensions are fixed by adding 2 parts ice cold ethanol 100% while vortexing. Then the samples are stored for > 2 h at-20°C. Subsequently the cells are washed with PBS once and resuspended in 250 µl PBS containing 50 µg/ml PI (Calbiochem # 537059), then the samples are incubated at 37°C for 30 minutes and subsequently analyzed on a FACSCalibur™ monitoring linear PI fluorescence activity on FL2.. The readout allows the detection of a possible direct or indirect influence of the tested compounds on the cell cycle. The following events can occur: a) Generation of a subG1 peak indicative for DNA fragmentation, b) increase of the cell population arrested in G2M phase. Both events are scored by 1 for weak and 2 for strong occurrence. 0 indicates no occurrence at all. […]

[13] = tested on: Jurkat; experiment: PI staining for cell cycle distribution; assay type: cell-based, human; design: key: 0 indicates no occurrence at all; 1 for weak; 2 for strong occurrence; details: Jurkat 3 uM, 24 h
Procedure: as §4

COc1cc2c(cc1OC)-c1cc3nc4ccccc4nc3n1C(C)C2 (stereo not drawn) [compound 8]
Hoechst 33342 nuclear staining ([1]; 24h, conc 0.3 (µM)): 0 | Hoechst 33342 nuclear staining ([1]; 24h, conc 1 (µM)): 0 | Hoechst 33342 nuclear staining ([1]; 24h, conc 3 (µM)): 0 | Hoechst 33342 nuclear staining ([1]; 24h, conc 10 (µM)): 0 | Hoechst 33342 nuclear staining ([1]; 48h, conc 0.3 (µM)): 0 | Hoechst 33342 nuclear staining ([1]; 48h, conc 1 (µM)): 0 | Hoechst 33342 nuclear staining ([1]; 48h, conc 3 (µM)): 1 (1 relating to weak activity comprising less than 50% of the cells) | Hoechst 33342 nuclear staining ([1]; 48h, conc 10 (µM)): 2 (score 2 relating to strong activity comprising more than 50% of the cells) | Hoechst 33342 nuclear staining ([2]; 24h, conc 0.3 (µM)): 1 (1 relating to weak activity comprising less than 50% of the cells) | Hoechst 33342 nuclear staining ([2]; 24h, conc 1 (µM)): 1 (1 relating to weak activity comprising less than 50% of the cells) | Hoechst 33342 nuclear staining ([2]; 24h, conc 3 (µM)): 2 (score 2 relating to strong activity comprising more than 50% of the cells) | Hoechst 33342 nuclear staining ([2]; 24h, conc 10 (µM)): 2 (score 2 relating to strong activity comprising more than 50% of the cells) | Hoechst 33342 nuclear staining ([2]; 48h, conc 0.3 (µM)): 1 (1 relating to weak activity comprising less than 50% of the cells) | Hoechst 33342 nuclear staining ([2]; 48h, conc 1 (µM)): 2 (score 2 relating to strong activity comprising more than 50% of the cells) | Hoechst 33342 nuclear staining ([2]; 48h, conc 3 (µM)): 2 (score 2 relating to strong activity comprising more than 50% of the cells) | Hoechst 33342 nuclear staining ([2]; 48h, conc 10 (µM)): 2 (score 2 relating to strong activity comprising more than 50% of the cells) | Hoechst 33342 nuclear staining ([3]; K562, 24h, conc 0.3 (µM)): 0 | Hoechst 33342 nuclear staining ([3]; K562, 24h, conc 1 (µM)): 0 | Hoechst 33342 nuclear staining ([3]; K562, 24h, conc 3 (µM)): 0 | Hoechst 33342 nuclear staining ([3]; K562, 48h, conc 0.3 (µM)): 0 | Hoechst 33342 nuclear staining ([3]; K562, 48h, conc 1 (µM)): 2 (score 2 relating to strong activity comprising more than 50% of the cells) | Hoechst 33342 nuclear staining ([3]; K562, 48h, conc 3 (µM)): 2 (score 2 relating to strong activity comprising more than 50% of the cells) | Hoechst 33342 nuclear staining ([3]; K562, 48h, conc 10 (µM)): 2 (score 2 relating to strong activity comprising more than 50% of the cells) | Hoechst 33342 nuclear staining ([4]; 24h, conc 0.3 (µM)): 0 | Hoechst 33342 nuclear staining ([4]; 24h, conc 1 (µM)): 0 | Hoechst 33342 nuclear staining ([4]; 24h, conc 3 (µM)): 0 | Hoechst 33342 nuclear staining ([4]; 24h, conc 10 (µM)): 0 | Hoechst 33342 nuclear staining ([4]; 48h, conc 0.3 (µM)): 0 | Hoechst 33342 nuclear staining ([4]; 48h, conc 1 (µM)): 0 | Hoechst 33342 nuclear staining ([4]; 48h, conc 3 (µM)): 0 | Hoechst 33342 nuclear staining ([4]; 48h, conc 10 (µM)): 0 | IC50 [5]: 1 to 10 µM | IC50 [6]: 1 to 10 µM | IC50 [7]: > 10 µM | percentage of positively stained cells (AnnexinV/7-AAD staining) [8]: 1 (score 1 relates to more than 10% but less than 50%) | percentage of positively stained cells (AnnexinV/7-AAD staining) [9]: 0 (Score 0 relates to less than 10%) | percentage of positively stained cells (AnnexinV/7-AAD staining) [10]: 0 (Score 0 relates to less than 10%) | percentage of positively stained cells (AnnexinV/7-AAD staining) [11]: 0 (Score 0 relates to less than 10%) | G2M (increase of the cell population arrested in G2M phase) [12]: 0 | subG1 (generation of a subG1 peak indicative for DNA fragmentation) [12]: 1 | G2M (increase of the cell population arrested in G2M phase) [13]: 0 | subG1 (generation of a subG1 peak indicative for DNA fragmentation) [13]: 1
